Experimental data from article PMC7156458, “Synthetic biology based construction of biological activity-related library of fungal decalin-containing diterpenoid pyrones” (Nature Communications, 2020).

How the values were obtained:
Assay in all cases: cells
Set-up in all cases: species or system JFCR39 human cancer cell lines; JFCR39 panel growth inhibition, sulforhodamine B total protein after 48 h
OVCAR-4 = conditions: 48 h; inhibitor; Log GI50, 48 h
Summary of the method: (§1)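 GI50 values derive from sulforhodamine B measurement of total cellular protein after 48 hours of treatment, run in duplicate. Cells of the 39-line JFCR39 panel grew in RPMI-1640 containing 5% fetal bovine serum at 37°C under 5% CO2.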

HT-29 = conditions: 48 h; inhibitor; Log GI50, 48 h
Summary of the method: as §1

PC-3 = conditions: 48 h; inhibitor; Log GI50, 48 h
Summary of the method: as §1

SK-OV-3 = conditions: 48 h; inhibitor; Log GI50, 48 h
Summary of the method: as §1

SF-539 = conditions: 48 h; inhibitor; Log GI50, 48 h
Summary of the method: as §1

HCT-15 = conditions: 48 h; inhibitor; Log GI50, 48 h
Summary of the method: as §1

DMS114 = conditions: 48 h; inhibitor; Log GI50, 48 h
Summary of the method: as §1

SF-295 = conditions: Homo sapiens, SF-295, 48 h
Summary of the method: as §1

HCT-116 = conditions: 48 h; inhibitor; Log GI50, 48 h
Summary of the method: as §1

NCI-H23 = conditions: 48 h; inhibitor; Log GI50, 48 h
Summary of the method: as §1

SF-268 = conditions: 48 h; inhibitor; Log GI50, 48 h
Summary of the method: as §1

HBC-4 = conditions: 48 h; inhibitor; Log GI50, 48 h
Summary of the method: as §1

MKN74 = conditions: 48 h; inhibitor; Log GI50, 48 h
Summary of the method: as §1

U251 = conditions: 48 h; inhibitor; Log GI50, 48 h
Summary of the method: as §1

OVCAR-5 = conditions: 48 h; inhibitor; Log GI50, 48 h
Summary of the method: as §1

OVCAR-8 = conditions: 48 h; inhibitor; Log GI50, 48 h
Summary of the method: as §1

MKN1 = conditions: 48 h; inhibitor; Log GI50, 48 h
Summary of the method: as §1

OVCAR-3 = conditions: 48 h; inhibitor; Log GI50, 48 h
Summary of the method: as §1

MKN45 = conditions: 48 h; inhibitor; Log GI50, 48 h
Summary of the method: as §1

MKN-A = conditions: 48 h; inhibitor; Log GI50, 48 h
Summary of the method: as §1

DU-145 = conditions: 48 h; inhibitor; Log GI50, 48 h
Summary of the method: as §1

C=C1CCC2C(C)(CCC=C(C)C)C(O)CCC2(C)C1Cc1c(OC)oc(CO)c(C)c1=O (stereo not drawn) [Compound 16]
Log GI50 (OVCAR-4): -4.966 M | Log GI50 (HT-29): -4.904 M | Log GI50 (PC-3): -5.211 M | Log GI50 (SK-OV-3): -4.993 M | Log GI50 (SF-539): -4.953 M | Log GI50 (HCT-15): -5.220 M | Log GI50 (DMS114): -6.139 M | GI50 (SF-295): 2800 nM | Log GI50 (HCT-116): -5.292 M | Log GI50 (NCI-H23): -5.618 M | Log GI50 (SF-268): -4.944 M | Log GI50 (HBC-4): -4.804 M | Log GI50 (MKN74): -4.995 M | Log GI50 (U251): -4.880 M | Log GI50 (OVCAR-5): -4.859 M | Log GI50 (OVCAR-8): -5.076 M | Log GI50 (MKN1): -4.787 M | Log GI50 (OVCAR-3): -5.447 M | Log GI50 (MKN45): -4.853 M | Log GI50 (MKN-A): -5.445 M | Log GI50 (DU-145): -4.962 M
